Tests used:
Type in all cases: physicochemical
[1] = Stability of multivitamin soft capsules in container with channel former and absorbent embedded in the inside walls, 40° C./75% RH
Text: (§1) Multivitamin soft capsules (active-compound composition and capsule shell as described below) are introduced individually into a thermoformed cavity film made from PVC 250 μm+40 g/m^2 of PVDC and heat-sealed with aluminium foil (20 μm) and into a resealable container in/on the inside wall(s) of which at least one channel former is embedded, at least over part of the area, together with at least one absorbent (type: M-3006-16 Activ-Vial) in the inside walls of which a molecular sieve having a capacity of 1.92 g is embedded.
(§2) The blisters and containers containing the multivitamin soft capsules are stored at 40° C. and 75% relative humidity (RH), removed from storage after predetermined times, assessed visually with respect to their appearance and investigated analytically with respect to the amounts of active compound present. The results are compiled in Tables 1 and 2.

[2] = Stability of multivitamin soft capsules in PVC/PVDC-aluminium blister, 40° C./75% RH
Text: as §1, §2

[3] = Stability of multivitamin soft capsules in container with channel former and absorbent embedded in the inside walls, 30° C./65% RH
Protocol: as §1, with “introduced” for “introduced individually into a thermoformed cavity film made from PVC 250 μm+40 g/m^2 of PVDC and heat-sealed with aluminium foil (20 μm) and”
The multivitamin soft capsules are stored at 30° C. and 65% relative humidity (RH), removed from storage after predetermined times, assessed visually with respect to their appearance and investigated analytically with respect to the amounts of active compound present.

[4] = Multivitamin soft capsule batch 9018802, 6 months
[5] = Multivitamin soft capsule batch 9018802, Start
[6] = Multivitamin soft capsule batch 9018401, 3 months
[7] = Multivitamin soft capsule batch 9018401, Start
[8] = Multivitamin soft capsule batch GD 06 0045, 6 months
[9] = Multivitamin soft capsule batch GD 06 0045, Start

Row | Compound | amount of active compound present [1, 4] [mg/capsule] | amount of active compound present, % of start [1, 4] [%] | amount of active compound present [1, 5] [mg/capsule] | amount of active compound present, % of start [1, 5] [%] | amount of active compound present [2, 6] [mg/capsule] | amount of active compound present, % of start [2, 6] [%] | amount of active compound present [2, 7] [mg/capsule] | amount of active compound present, % of start [2, 7] [%] | amount of active compound present [3, 8] [mg/capsule] | amount of active compound present, % of start [3, 8] [%] | amount of active compound present [3, 9] [mg/capsule] | amount of active compound present, % of start [3, 9] [%]
1 | O=C1O[C@H]([C@@H](O)CO)C(O)=C1O [Ascorbic acid] | 210 | 99 | 213 | 100 | 159 | 76 | 209 | 100 | 115.0 | 95 | 120.5 | 100
2 | O=C(O)CCCC[C@@H]1SC[C@@H]2NC(=O)N[C@@H]21 [Biotin] |  |  |  |  |  |  |  |  | 0.185 | 105 | 0.176 | 100
3 | CC(C)(CO)[C@@H](O)C(=O)NCCC(=O)[O-].CC(C)(CO)[C@@H](O)C(=O)NCCC(=O)[O-].[Ca+2] [Calcium panthotenate] |  |  |  |  |  |  |  |  | 14.9 | 96 | 15.6 | 100
4 | CC(C)(CO)[C@@H](O)C(=O)NCCCO [Dexpanthenol] | 12.8 | 96 | 13.3 | 100 | 9.7 | 72 | 13.5 | 100 |  |  |  | 
5 | Cyanocobalamine | 0.173 | 82 | 0.21 | 100 | 0.171 | 86 | 0.199 | 100 | 0.0158 | 97 | 0.0163 | 100

Next, values leading:

Row | amount of active compound present [1, 4] [mg/capsule] | amount of active compound present, % of start [1, 4] [%] | amount of active compound present [1, 5] [mg/capsule] | amount of active compound present, % of start [1, 5] [%] | amount of active compound present [2, 6] [mg/capsule] | amount of active compound present, % of start [2, 6] [%] | amount of active compound present [2, 7] [mg/capsule] | amount of active compound present, % of start [2, 7] [%] | amount of active compound present [3, 8] [mg/capsule] | amount of active compound present, % of start [3, 8] [%] | amount of active compound present [3, 9] [mg/capsule] | amount of active compound present, % of start [3, 9] [%] | Compound
6 | 0.520 | 87 | 0.60 | 100 | 0.57 | 92 | 0.62 | 100 | 0.603 | 104 | 0.581 | 100 | Nc1nc2ncc(CNc3ccc(C(=O)N[C@@H](CCC(=O)O)C(=O)O)cc3)nc2c(=O)[nH]1 [Folic acid]
7 |  |  |  |  |  |  |  |  | 20.1 | 98 | 20.6 | 100 | NC(=O)c1cccnc1 [Nicotinamide]
8 |  |  |  |  |  |  |  |  | 3.39 | 94 | 3.60 | 100 | Cc1ncc(CO)c(CO)c1O.Cl [Pyridoxine*HCL]
9 |  |  |  |  |  |  |  |  | 2.23 | 107 | 2.09 | 100 | Cc1cc2nc3c(=O)[nH]c(=O)nc-3n(C[C@H](O)[C@H](O)[C@H](O)CO)c2cc1C [Riboflavin]
10 | 19.3 | 98 | 19.6 | 100 | 17.1 | 87 | 19.7 | 100 |  |  |  |  | Cc1ncc(C[n+]2csc(CCO)c2C)c(N)n1.Cl.[Cl-] [Thiamine*HCL]
11 |  |  |  |  |  |  |  |  | 19.8 | 99 | 20.0 | 100 | CC(=O)Oc1c(C)c(C)c2c(c1C)CCC(C)(CCC[C@H](C)CCC[C@H](C)CCCC(C)C)O2 (some centres unmarked) [Tocopherol acetate]
12 |  |  |  |  |  |  |  |  | 2.0 | 87 | 2.3 | 100 | CC1=C(/C=C/C(C)=C/C=C/C(C)=C/C=C/C=C(C)/C=C/C=C(C)/C=C/C2=C(C)CCCC2(C)C)C(C)(C)CCC1 [β-Carotene]

From patent US20100065444A1, “PACK CONTAINING SOFT CAPSULES” (priority 2007, published 2010)
